Experimental data from PMC7206119, “RIP1 inhibition blocks inflammatory diseases but not tumor growth or metastases” (Cell Death and Differentiation, 2019).

Key:
Experiment in all cases: biochemical
[1] = molecular target: ZAP70 (Homo sapiens, UniProt P43403); parameters: gene ZAP70; Thermo Fisher SelectScreen kinase panel: Z'-LYTE and Adapta activity, LanthaScreen binding
Experimental: 5 88 GNE684 was tested in Thermo Fisher Scientific SelectScreen assay (Madison, WI) 89 against 221 representative kinases at a concentration of 10 µM, which is 476-fold greater than the Ki app 90 for GNE684 against human RIP1 in the RIP1 enzyme 91 assay. The kinase assays were carried out using Z'-LYTE and Adapta activity and 92 LanthaScreen binding assays (Thermo Fisher Scientific, Madison WI) following 93 protocols developed and performed by Thermo Fisher Scientific 94 (https://www.thermofisher.com/us/en/home/products-and-services/services/custom-95 services/screening-and-profiling-services/selectscreen-profiling-service/selectscreen-96 kinase-profiling-service.html). 97 GNE684 was also tested against 468 kinases in the KINOMEscan scanMAX kinase 98 binding assay panel at a concentration of 10 µM following protocols developed and 99 performed by DiscoverX (http://www.discoverx.com/kinase_profiling).

[2] = molecular target: FGR (Homo sapiens, UniProt P09769); parameters: Thermo Fisher SelectScreen kinase panel: Z'-LYTE and Adapta activity, LanthaScreen binding
Outline: (§1)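 GNE684 profiled at 10 µM across 221 kinases with Z'-LYTE and Adapta activity and LanthaScreen binding formats. Also screened at 10 µM against 468 kinases in KINOMEscan scanMAX binding assay.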

[3] = molecular target: WEE1 (Homo sapiens, UniProt P30291); parameters: Thermo Fisher SelectScreen kinase panel: Z'-LYTE and Adapta activity, LanthaScreen binding
Outline: as §1

[4] = molecular target: T1, PRK1 (Homo sapiens, UniProt Q16512); parameters: Thermo Fisher SelectScreen kinase panel: Z'-LYTE and Adapta activity, LanthaScreen binding
T1 construct: gene PKN1
T1 sequence (Q16512 whole entry): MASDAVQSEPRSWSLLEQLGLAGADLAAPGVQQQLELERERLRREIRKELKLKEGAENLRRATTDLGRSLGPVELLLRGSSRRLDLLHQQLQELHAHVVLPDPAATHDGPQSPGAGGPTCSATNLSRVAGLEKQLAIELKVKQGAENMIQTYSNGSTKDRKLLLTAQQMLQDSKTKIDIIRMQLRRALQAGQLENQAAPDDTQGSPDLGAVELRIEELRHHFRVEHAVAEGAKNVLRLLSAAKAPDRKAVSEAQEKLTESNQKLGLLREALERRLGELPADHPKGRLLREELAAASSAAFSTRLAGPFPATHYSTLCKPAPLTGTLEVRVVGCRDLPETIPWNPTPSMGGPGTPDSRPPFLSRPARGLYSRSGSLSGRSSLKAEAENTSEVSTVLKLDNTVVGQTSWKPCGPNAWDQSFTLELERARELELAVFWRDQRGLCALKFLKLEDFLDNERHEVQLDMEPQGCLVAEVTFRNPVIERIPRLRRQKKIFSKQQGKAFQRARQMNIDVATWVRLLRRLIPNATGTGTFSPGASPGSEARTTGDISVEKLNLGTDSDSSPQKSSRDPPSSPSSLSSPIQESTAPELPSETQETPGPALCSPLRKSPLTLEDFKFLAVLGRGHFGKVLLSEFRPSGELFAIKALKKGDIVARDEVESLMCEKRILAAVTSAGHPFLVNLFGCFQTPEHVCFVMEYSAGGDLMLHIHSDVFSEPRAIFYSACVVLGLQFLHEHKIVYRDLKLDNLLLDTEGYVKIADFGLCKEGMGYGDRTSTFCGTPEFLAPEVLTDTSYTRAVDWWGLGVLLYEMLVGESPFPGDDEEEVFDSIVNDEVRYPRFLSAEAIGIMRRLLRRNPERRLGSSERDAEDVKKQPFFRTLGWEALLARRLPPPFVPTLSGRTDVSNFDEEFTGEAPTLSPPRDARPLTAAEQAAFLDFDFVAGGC
Outline: as §1

[5] = molecular target: EGFR (Homo sapiens, UniProt P00533); parameters: Thermo Fisher SelectScreen kinase panel: Z'-LYTE and Adapta activity, LanthaScreen binding
Outline: as §1

[6] = molecular target: PAK4 (Homo sapiens, UniProt O96013); parameters: Thermo Fisher SelectScreen kinase panel: Z'-LYTE and Adapta activity, LanthaScreen binding
Sequence of PAK4 (O96013 whole entry): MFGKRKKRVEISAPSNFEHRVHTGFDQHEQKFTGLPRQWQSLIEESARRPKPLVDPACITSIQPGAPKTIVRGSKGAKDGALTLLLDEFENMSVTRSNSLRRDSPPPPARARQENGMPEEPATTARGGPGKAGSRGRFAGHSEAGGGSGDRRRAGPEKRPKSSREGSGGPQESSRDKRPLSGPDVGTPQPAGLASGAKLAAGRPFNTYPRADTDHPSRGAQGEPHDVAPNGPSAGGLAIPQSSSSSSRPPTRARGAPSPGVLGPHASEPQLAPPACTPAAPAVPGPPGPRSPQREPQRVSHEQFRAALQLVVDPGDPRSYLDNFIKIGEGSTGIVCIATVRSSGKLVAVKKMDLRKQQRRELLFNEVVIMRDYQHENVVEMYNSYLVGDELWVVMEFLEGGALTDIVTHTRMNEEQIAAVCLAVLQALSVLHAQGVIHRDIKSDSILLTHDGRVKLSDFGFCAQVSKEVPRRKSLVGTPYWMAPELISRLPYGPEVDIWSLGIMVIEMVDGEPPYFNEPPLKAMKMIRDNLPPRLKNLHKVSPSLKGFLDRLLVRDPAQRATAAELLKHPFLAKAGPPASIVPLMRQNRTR
Outline: as §1

[7] = molecular target: T2, PKC_beta1 (Homo sapiens, UniProt P05771); parameters: Thermo Fisher SelectScreen kinase panel: Z'-LYTE and Adapta activity, LanthaScreen binding
T2 construct: gene PRKCB; isoform beta I
Outline: as §1

[8] = molecular target: T3, DNA-PK (Homo sapiens, UniProt P78527); parameters: Thermo Fisher SelectScreen kinase panel: Z'-LYTE and Adapta activity, LanthaScreen binding
T3 construct: gene PRKDC
Outline: as §1

[9] = molecular target: ITK (Homo sapiens, UniProt Q08881); parameters: Thermo Fisher SelectScreen kinase panel: Z'-LYTE and Adapta activity, LanthaScreen binding
Sequence of ITK (Q08881 whole entry): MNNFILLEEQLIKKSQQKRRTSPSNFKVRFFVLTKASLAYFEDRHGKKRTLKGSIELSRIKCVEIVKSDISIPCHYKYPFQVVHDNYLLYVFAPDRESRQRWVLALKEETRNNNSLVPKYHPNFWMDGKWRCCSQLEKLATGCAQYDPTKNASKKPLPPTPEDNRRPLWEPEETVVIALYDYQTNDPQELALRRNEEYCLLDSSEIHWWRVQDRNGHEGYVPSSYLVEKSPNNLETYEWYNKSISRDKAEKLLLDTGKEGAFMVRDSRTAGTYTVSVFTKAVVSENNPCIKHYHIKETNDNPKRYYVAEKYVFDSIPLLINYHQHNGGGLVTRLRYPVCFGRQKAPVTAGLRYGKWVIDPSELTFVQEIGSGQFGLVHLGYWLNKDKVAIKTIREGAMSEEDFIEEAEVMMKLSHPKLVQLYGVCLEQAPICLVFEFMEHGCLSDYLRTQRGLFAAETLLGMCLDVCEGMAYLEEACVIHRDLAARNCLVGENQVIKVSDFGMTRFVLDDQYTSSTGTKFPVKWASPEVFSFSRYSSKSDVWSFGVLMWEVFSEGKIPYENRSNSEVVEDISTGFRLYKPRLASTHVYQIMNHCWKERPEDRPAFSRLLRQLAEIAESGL
Outline: as §1

[10] = molecular target: T4, eEF-2K (Homo sapiens, UniProt O00418); parameters: Thermo Fisher SelectScreen kinase panel: Z'-LYTE and Adapta activity, LanthaScreen binding
T4 construct: gene EEF2K
Outline: as §1

[11] = molecular target: EPHB3 (Homo sapiens, UniProt P54753); parameters: Thermo Fisher SelectScreen kinase panel: Z'-LYTE and Adapta activity, LanthaScreen binding
Outline: as §1

[12] = molecular target: GRK6 (Homo sapiens, UniProt P43250); parameters: Thermo Fisher SelectScreen kinase panel: Z'-LYTE and Adapta activity, LanthaScreen binding
Outline: as §1

[13] = molecular target: T5, PI3K-A (Homo sapiens, UniProt P42336); parameters: Thermo Fisher SelectScreen kinase panel: Z'-LYTE and Adapta activity, LanthaScreen binding
T5 construct: gene PIK3CA; p110alpha/p85alpha
Outline: as §1

[14] = molecular target: KDR (Homo sapiens, UniProt P35968); parameters: Thermo Fisher SelectScreen kinase panel: Z'-LYTE and Adapta activity, LanthaScreen binding
Outline: as §1

[15] = molecular target: T6, p38-delta (Homo sapiens, UniProt O15264); parameters: Thermo Fisher SelectScreen kinase panel: Z'-LYTE and Adapta activity, LanthaScreen binding
T6 construct: gene MAPK13
T6 sequence (O15264 whole entry): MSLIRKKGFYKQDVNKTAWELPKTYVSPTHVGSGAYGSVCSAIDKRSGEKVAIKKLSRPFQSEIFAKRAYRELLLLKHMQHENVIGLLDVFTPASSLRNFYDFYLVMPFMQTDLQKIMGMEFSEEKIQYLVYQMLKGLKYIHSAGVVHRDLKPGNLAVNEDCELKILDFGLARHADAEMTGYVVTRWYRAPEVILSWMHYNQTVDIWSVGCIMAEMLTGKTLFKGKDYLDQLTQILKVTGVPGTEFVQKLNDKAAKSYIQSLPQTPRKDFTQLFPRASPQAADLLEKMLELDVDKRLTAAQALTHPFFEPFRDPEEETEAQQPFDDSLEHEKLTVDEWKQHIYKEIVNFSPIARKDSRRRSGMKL
Outline: as §1

[16] = molecular target: HIPK4 (Homo sapiens, UniProt Q8NE63); parameters: Thermo Fisher SelectScreen kinase panel: Z'-LYTE and Adapta activity, LanthaScreen binding
Outline: as §1

[17] = molecular target: T7, ZIPK (Homo sapiens, UniProt O43293); parameters: Thermo Fisher SelectScreen kinase panel: Z'-LYTE and Adapta activity, LanthaScreen binding
T7 construct: gene DAPK3
T7 sequence (O43293 whole entry): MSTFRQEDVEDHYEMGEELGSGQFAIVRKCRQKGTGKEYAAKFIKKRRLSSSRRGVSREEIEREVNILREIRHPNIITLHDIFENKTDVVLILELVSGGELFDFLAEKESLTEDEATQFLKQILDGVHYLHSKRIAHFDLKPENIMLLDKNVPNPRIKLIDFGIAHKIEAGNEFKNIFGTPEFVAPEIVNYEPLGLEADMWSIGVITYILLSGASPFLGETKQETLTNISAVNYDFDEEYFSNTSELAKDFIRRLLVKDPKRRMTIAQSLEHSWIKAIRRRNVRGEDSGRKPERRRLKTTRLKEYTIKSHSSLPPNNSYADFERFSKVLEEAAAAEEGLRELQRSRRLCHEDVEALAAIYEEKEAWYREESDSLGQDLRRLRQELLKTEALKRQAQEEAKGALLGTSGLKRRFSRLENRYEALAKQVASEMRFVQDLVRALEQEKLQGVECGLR
Outline: as §1

[18] = molecular target: CSF1R (Homo sapiens, UniProt P07333); parameters: Thermo Fisher SelectScreen kinase panel: Z'-LYTE and Adapta activity, LanthaScreen binding
Outline: as §1

[19] = molecular target: HCK (Homo sapiens, UniProt P08631); parameters: Thermo Fisher SelectScreen kinase panel: Z'-LYTE and Adapta activity, LanthaScreen binding
Outline: as §1

[20] = molecular target: T8, MST3 (Homo sapiens, UniProt Q9Y6E0); parameters: Thermo Fisher SelectScreen kinase panel: Z'-LYTE and Adapta activity, LanthaScreen binding
T8 construct: gene STK24
T8 sequence (Q9Y6E0 whole entry): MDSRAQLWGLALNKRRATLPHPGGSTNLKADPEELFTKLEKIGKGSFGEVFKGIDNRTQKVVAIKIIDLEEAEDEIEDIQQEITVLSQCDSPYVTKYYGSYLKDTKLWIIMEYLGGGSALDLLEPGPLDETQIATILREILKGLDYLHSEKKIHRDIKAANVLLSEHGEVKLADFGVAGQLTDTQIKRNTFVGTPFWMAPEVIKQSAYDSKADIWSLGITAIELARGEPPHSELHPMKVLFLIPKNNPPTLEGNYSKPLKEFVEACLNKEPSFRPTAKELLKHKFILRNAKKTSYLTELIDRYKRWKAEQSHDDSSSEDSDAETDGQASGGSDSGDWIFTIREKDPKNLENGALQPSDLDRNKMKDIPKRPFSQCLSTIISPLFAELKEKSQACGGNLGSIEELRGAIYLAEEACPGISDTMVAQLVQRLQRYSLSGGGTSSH
Outline: as §1

[21] = molecular target: MAP4K4 (Homo sapiens, UniProt O95819); parameters: Thermo Fisher SelectScreen kinase panel: Z'-LYTE and Adapta activity, LanthaScreen binding
Outline: as §1

[22] = molecular target: T9, MST2 (Homo sapiens, UniProt Q13188); parameters: Thermo Fisher SelectScreen kinase panel: Z'-LYTE and Adapta activity, LanthaScreen binding
T9 construct: gene STK3
Outline: as §1

[23] = molecular target: RIPK2 (Homo sapiens, UniProt O43353); parameters: Thermo Fisher SelectScreen kinase panel: Z'-LYTE and Adapta activity, LanthaScreen binding
Sequence of RIPK2 (O43353 whole entry): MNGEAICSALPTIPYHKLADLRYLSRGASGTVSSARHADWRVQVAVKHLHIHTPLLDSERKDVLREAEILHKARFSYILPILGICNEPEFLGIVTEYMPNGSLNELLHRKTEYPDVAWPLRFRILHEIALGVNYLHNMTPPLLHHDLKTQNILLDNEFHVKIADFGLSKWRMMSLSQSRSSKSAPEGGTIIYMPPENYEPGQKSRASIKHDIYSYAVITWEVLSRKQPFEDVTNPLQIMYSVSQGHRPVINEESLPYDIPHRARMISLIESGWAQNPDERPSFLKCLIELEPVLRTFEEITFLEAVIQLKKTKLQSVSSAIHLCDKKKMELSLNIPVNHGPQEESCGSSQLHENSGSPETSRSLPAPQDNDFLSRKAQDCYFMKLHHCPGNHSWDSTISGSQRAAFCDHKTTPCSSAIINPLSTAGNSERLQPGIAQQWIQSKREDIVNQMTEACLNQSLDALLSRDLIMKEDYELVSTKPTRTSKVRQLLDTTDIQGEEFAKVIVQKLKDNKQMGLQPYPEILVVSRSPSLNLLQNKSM
Outline: as §1

Sequence of ZAP70 (P43403 whole entry): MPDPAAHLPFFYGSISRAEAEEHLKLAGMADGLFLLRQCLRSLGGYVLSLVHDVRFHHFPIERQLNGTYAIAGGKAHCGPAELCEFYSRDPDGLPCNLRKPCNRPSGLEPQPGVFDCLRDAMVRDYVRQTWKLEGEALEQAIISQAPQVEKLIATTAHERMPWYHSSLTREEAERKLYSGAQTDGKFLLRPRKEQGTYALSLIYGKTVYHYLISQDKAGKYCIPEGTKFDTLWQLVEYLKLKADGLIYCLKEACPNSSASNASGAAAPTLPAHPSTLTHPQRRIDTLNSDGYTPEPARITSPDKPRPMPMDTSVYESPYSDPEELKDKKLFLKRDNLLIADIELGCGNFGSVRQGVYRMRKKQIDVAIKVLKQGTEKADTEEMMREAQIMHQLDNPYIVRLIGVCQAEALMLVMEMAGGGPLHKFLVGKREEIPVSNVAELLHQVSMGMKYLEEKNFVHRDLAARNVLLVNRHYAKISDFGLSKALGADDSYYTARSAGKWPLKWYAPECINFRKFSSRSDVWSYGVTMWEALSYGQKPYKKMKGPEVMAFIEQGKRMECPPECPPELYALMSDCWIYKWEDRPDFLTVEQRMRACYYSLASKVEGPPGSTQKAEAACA

## COc1cc2c(cn1)N(C)C(=O)[C@@H](NC(=O)c1nc3n(n1)[C@H](c1ccccc1)CC3)CC2 [GNE684, (S)-N-((S)-7-methoxy-1-methyl-2-oxo-2,3,4,5-tetrahydro-1H-pyrido[3,4-b]azepin-3-yl)-5-phenyl-6,7-dihydro-5H-pyrrolo[1,2-b][1,2,4]triazole-2-carboxamide]
[1]
  inhibition at 10 µM: 1%
[2]
  inhibition at 10 µM: 8%
[3]
  inhibition at 10 µM: 0.5%
[4]
  inhibition at 10 µM: 2.5%
[5]
  inhibition at 10 µM: 2.5%
[6]
  inhibition at 10 µM: 14%
[7]
  inhibition at 10 µM: 3.5%
[8]
  inhibition at 10 µM: 4%
[9]
  inhibition at 10 µM: 5%
[10]
  inhibition at 10 µM: 0%
[11]
  inhibition at 10 µM: 3.5%
[12]
  inhibition at 10 µM: 6.5%
[13]
  inhibition at 10 µM: 16%
[14]
  inhibition at 10 µM: -0.5%
[15]
  inhibition at 10 µM: 3.5%
[16]
  inhibition at 10 µM: 11.5%
[17]
  inhibition at 10 µM: 1%
[18]
  inhibition at 10 µM: 2%
[19]
  inhibition at 10 µM: 5%
[20]
  inhibition at 10 µM: 4%
[21]
  inhibition at 10 µM: 11.5%
[22]
  inhibition at 10 µM: 5%
[23]
  inhibition at 10 µM: 2%
